Measured values published in patent US20050054025A1 (priority 2003, published 2005).
Converted amounts (≈) assume the structure as drawn. Marks after values point to notes of the source that are not given here.

Tests used:
acetylcholinesterase [1] = target: acetylcholinesterase (Homo sapiens, UniProt P22303); test: biochemical; format: biochemical; conditions: for IC20: read-out: Porex Dot Test IC20
acetylcholinesterase [2] = conditions: cited from earlier work

Chain of acetylcholinesterase (Homo sapiens, UniProt P22303) (P22303 32-614, species assumed): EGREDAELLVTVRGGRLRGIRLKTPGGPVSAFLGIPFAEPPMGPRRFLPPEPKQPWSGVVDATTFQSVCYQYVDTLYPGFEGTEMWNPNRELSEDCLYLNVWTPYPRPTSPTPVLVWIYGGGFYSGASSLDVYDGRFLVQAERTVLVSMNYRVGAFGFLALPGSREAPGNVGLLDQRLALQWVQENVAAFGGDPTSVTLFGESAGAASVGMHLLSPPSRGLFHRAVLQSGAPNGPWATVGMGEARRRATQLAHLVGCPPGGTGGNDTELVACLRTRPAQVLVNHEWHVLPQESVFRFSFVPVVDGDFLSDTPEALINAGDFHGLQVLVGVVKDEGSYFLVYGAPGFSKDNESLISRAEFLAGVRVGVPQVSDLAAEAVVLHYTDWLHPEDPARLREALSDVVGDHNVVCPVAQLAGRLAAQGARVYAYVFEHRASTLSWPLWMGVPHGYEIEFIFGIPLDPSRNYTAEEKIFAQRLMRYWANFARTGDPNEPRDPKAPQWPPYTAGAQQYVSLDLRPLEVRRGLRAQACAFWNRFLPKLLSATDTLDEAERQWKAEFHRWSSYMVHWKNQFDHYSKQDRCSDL

SMILES | IC20 (acetylcholinesterase [1]) | EnviroLogix IC20 (acetylcholinesterase [2]) | further results
CNC(=O)ON=C(C)SC [Methomyl] | 0.011 ng/mL (≈ 0.0678 nM) |  | 
CCOC(=O)CC(SP(=S)(OC)OC)C(=O)OCC (stereo not drawn) [Malithion] |  | 60 μg/L | Porex Dot Test IC20 (acetylcholinesterase [1]): 0.11 µg/L
CNC(=O)Oc1cccc2c1OC(C)(C)C2 [Carbofuran] | 0.4 ng/mL (≈ 1.81 nM) | 40 μg/L | 
CCOP(=S)(OCC)Oc1cc(C)nc(C(C)C)n1 [Diazinon] | 0.14 ng/mL (≈ 0.46 nM) |  | EnviroLogix IC50 (cells marked *) (acetylcholinesterase [2]): 3.0* μg/L
CNC(=O)Oc1ccccc1OC(C)C [Baygon (propoxur), propoxur] | 9 ng/mL (≈ 43 nM) | 50 μg/L | 
CCOP(=O)(OCC)Oc1ccc([N+](=O)[O-])cc1 [Paraoxon] |  |  | detectable amount using instrument detection (acetylcholinesterase [1]): about 0.5 ng/mL; detectable level, determined visually (acetylcholinesterase [1]): 10 ng/mL
CNC(=O)O/N=C/C(C)(C)SC [Aldicarb] | 33 ng/mL (≈ 173 nM) |  | 
CNC(=O)O/N=C(\SC)C(=O)N(C)C [Oxymyl] |  | 100 μg/L | Porex Dot Test IC20 (acetylcholinesterase [1]): 16.7 µg/L
CCOP(=S)(OCC)SCSC(C)(C)C [Terbufos] | 143 ng/mL (≈ 496 nM) |  | EnviroLogix IC50 (cells marked *) (acetylcholinesterase [2]): 12* μg/L
CCOP(=S)(OCC)SCCSCC [Disulfoton] | 0.5 ng/mL (≈ 1.82 nM) |  | 
CCOP(=S)(OCC)Oc1nc(Cl)c(Cl)cc1Cl [Chloropyrifos] |  | 5.2 μg/L | IC50 (acetylcholinesterase [1]): 0.285 nM
CNC(=O)Oc1cccc2ccccc12 [Carbaryl] | 9 ng/mL (≈ 44.7 nM) | 110 μg/L | 
